Source: publication PMC4835244 (Stem Cells Translational Medicine, 2016)
Counter-ions that a name gives are not always drawn. Like-named read-outs stand apart in the source and are kept apart here.

Key:
[1] = test system: ARE/Nrf2 pathway (CellSensor ARE-bla HepG2 cell line); test: ARE-bla β-lactamase reporter gene assay; type: cell-based; conditions: HepG2 cells
p53 = conditions: ref PubChem AID 720552; cited from earlier work
[2] = test system: activator protein 1 (AP1); conditions: assays previously performed; cited from earlier work
heat shock element (HSE) = conditions: ref PubChem AID 743228; cited from earlier work
in vitro = conditions: human

| SMILES | Activation of ARE-β-lactamase expression [1] | Shape of activity in the ARE-bla assay [1] | Cytotoxicity to HepG2 cells (CTG) (HepG2 cells; human, 18 h) | further results |
| --- | --- | --- | --- | --- |
| OC[C@H]1O[C@H]([S-])[C@H](O)[C@@H](O)[C@@H]1O.[Au+] [Aurothioglucose] | directly activated ARE-β-lactamase expression | bell shaped |  | Cytotoxicity to HepG2 cells (CTG) (HepG2 cells): toxic at the highest concentrations; Activity in β-lactamase reporter gene assay for p53 (p53): not active |
| CC(C)(C)c1ccc(C(=O)CCCN2CCC(OC(c3ccccc3)c3ccccc3)CC2)cc1 [Ebastine] |  |  | cytotoxic to HepG2 cells |  |
| c1ccc2c(c1)OCC(C1=NCCN1)O2 (centres unmarked) [Idazoxan hydrochloride] | directly activated ARE-β-lactamase expression | simple increase in ARE activation | not toxic to HepG2 cells at the concentrations tested | Activity in β-lactamase reporter gene assay for AP1 [2]: not active in any of these assays; Activity in β-lactamase reporter gene assay for p53 (p53): not active in any of these assays; Activity in β-lactamase reporter gene assay for HSE (heat shock element (HSE)): not active in any of these assays |
| O=C1c2ccccc2C(=O)c2c(NCCc3ccc(O)cc3)ccc(NCCc3ccc(O)cc3)c21 [JFD00244] | active in only one repetition |  |  |  |
| Cc1ccccc1/C=C/C1=NCCN1 [Metrazoline oxalate] | directly activated ARE-β-lactamase expression | simple increase in ARE activation | not toxic to HepG2 cells at the concentrations tested |  |
| COc1c(C)c2c(c(O)c1C/C=C(\C)CCC(=O)O)C(=O)OC2 [Mycophenolic acid] | active in only one repetition |  |  |  |
| COc1cccc2c1C(=O)c1c(O)c3c(c(O)c1C2=O)C[C@@](O)(C(=O)CO)C[C@@H]3O[C@H]1C[C@H](N2CCO[C@H](OC)C2)[C@H](O)[C@H](C)O1 [Nemorubicin] |  |  | cytotoxic to HepG2 cells |  |
| O=C1OC(=O)[C@H]2[C@@H]1[C@@H]1CC[C@H]2O1 [Norcantharidin] | active in only one repetition |  |  |  |
| CC(C)(C)c1ccc(C(O)CCCN2CCC(C(O)(c3ccccc3)c3ccccc3)CC2)cc1 (centres unmarked) [Terfenadine] |  |  |  | IC50 at 24 h (in vitro): 6.7 µM |
| C/C=C(/C)C(=O)O[C@H]1C(C)=C2[C@H]([C@@H]1OC(=O)CCCCCCC)[C@@](C)(OC(C)=O)C[C@H](OC(=O)CCC)[C@@]1(O)[C@H]2OC(=O)[C@@]1(C)O [Thapsigargin] |  |  | cytotoxic to HepG2 cells |  |
